Our source for the remaining activity values is patent US9738660B2, “Selective inhibitors for protein kinases and pharmaceutical composition and use thereof” (National Chiao Tung University, priority 2014, dated 2017).

Holding throughout (assay): Kinase Profiler, residual kinase activity
Holding throughout (type): biochemical

The target in one assay is ALK (Homo sapiens, UniProt Q9UM73). The settings on record: ALK; inhibitor at 500 nM; read-out: percentage of the remaining kinase activity. The essentials:
(§1)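 Outsourced panel screen: 40 protein kinases, residual activity reported per kinase.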

In a further assay the target is T1, AURKA (Homo sapiens, UniProt O14965).
T1 sequence (O14965 1-403): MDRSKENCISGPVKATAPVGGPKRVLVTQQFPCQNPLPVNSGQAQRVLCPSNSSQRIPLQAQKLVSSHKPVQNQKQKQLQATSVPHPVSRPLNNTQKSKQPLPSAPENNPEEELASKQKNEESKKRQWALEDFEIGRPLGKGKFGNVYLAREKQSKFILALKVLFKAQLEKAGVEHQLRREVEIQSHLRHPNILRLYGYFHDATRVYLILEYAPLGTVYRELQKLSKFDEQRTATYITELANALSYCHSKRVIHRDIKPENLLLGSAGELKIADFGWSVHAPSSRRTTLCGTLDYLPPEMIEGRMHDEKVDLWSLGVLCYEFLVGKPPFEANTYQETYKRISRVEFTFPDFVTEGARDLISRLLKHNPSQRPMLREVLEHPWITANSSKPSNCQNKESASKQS
The settings on record: AURKA; inhibitor at 500 nM; read-out: percentage of the remaining kinase activity. The procedure, abridged: as §1

Another assay addresses CAMK2D (Homo sapiens, UniProt Q13557). The settings on record: CAMK2D; inhibitor at 500 nM; read-out: percentage of the remaining kinase activity. The essentials:
as §1

Another assay addresses CLK1 (Homo sapiens, UniProt P49759). Conditions: CLK1; inhibitor at 500 nM; read-out: percentage of the remaining kinase activity. The procedure, abridged:
as §1

Another assay deals with T2, EGFR (Homo sapiens, UniProt P00533).
T2 construct: purchased Research Biology Corp. (http://www.reactionbiology.com)
The settings on record: EGFR; inhibitor at 500 nM; read-out: percentage of the remaining kinase activity. The essentials:
as §1

The target in a further assay is LIMK1 (Homo sapiens, UniProt P53667). The settings on record: LIMK1; inhibitor at 500 nM; read-out: percentage of the remaining kinase activity. The essentials: as §1
For a further assay, the target named is T3, MAP3K7 (Homo sapiens, UniProt O43318).
T3 construct: purchased Research Biology Corp. (http://www.reactionbiology.com)
T3 sequence (O43318 1-303 limits assumed): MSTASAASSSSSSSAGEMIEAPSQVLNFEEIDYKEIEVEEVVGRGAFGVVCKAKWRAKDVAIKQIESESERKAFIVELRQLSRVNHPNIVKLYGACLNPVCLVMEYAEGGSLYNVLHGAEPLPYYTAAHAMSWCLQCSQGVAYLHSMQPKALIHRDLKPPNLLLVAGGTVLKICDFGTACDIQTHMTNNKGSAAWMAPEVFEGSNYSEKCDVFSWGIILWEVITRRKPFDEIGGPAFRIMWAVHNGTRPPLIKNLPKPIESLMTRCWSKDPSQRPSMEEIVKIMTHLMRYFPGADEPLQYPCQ
The settings on record: MAP3K7; inhibitor at 500 nM; read-out: percentage of the remaining kinase activity. The essentials: as §1

For another assay, the target named is T4, PDPK1 (Homo sapiens, UniProt O15530).
T4 sequence (O15530 1-556): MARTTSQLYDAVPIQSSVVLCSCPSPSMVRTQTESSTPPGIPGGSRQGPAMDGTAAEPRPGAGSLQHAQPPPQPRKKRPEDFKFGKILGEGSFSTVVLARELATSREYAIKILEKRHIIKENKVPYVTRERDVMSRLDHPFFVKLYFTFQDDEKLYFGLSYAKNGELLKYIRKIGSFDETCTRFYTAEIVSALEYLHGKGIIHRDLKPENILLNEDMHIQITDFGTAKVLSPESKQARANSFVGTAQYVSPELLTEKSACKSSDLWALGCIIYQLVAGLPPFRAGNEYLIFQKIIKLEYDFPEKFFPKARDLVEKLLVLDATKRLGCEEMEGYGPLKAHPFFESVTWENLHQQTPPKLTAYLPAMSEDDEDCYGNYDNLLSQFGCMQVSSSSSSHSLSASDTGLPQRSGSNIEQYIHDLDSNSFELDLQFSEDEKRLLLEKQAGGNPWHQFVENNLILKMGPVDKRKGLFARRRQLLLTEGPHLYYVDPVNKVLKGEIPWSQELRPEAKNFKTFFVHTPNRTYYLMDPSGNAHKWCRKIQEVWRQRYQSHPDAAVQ
Conditions: PDPK1; inhibitor at 500 nM; read-out: percentage of the remaining kinase activity. The essentials: as §1

The next assay deals with T5, PRKACA (Homo sapiens, UniProt P17612).
T5 construct: purchased Research Biology Corp. (http://www.reactionbiology.com)
Conditions: PRKACA; inhibitor at 500 nM; read-out: percentage of the remaining kinase activity. The procedure, abridged:
as §1

The next assay has as its target RET (Homo sapiens, UniProt P07949). The settings on record: RET; inhibitor at 500 nM; read-out: percentage of the remaining kinase activity. The procedure, abridged:
as §1

The target of a further assay is T6, RPS6KA5 (Homo sapiens, UniProt O75582).
T6 construct: purchased Research Biology Corp. (http://www.reactionbiology.com)
The settings on record: RPS6KA5; inhibitor at 500 nM; read-out: percentage of the remaining kinase activity. The procedure, abridged: as §1

The target in a further assay is T7, SRPK1 (Homo sapiens, UniProt Q96SB4).
T7 construct: purchased Research Biology Corp. (http://www.reactionbiology.com)
The settings on record: SRPK1; inhibitor at 500 nM; read-out: percentage of the remaining kinase activity. The procedure, abridged: as §1

Another assay concerns the target T8, STK4 (Homo sapiens, UniProt Q13043).
T8 construct: purchased Research Biology Corp. (http://www.reactionbiology.com)
T8 sequence (Q13043 1-487): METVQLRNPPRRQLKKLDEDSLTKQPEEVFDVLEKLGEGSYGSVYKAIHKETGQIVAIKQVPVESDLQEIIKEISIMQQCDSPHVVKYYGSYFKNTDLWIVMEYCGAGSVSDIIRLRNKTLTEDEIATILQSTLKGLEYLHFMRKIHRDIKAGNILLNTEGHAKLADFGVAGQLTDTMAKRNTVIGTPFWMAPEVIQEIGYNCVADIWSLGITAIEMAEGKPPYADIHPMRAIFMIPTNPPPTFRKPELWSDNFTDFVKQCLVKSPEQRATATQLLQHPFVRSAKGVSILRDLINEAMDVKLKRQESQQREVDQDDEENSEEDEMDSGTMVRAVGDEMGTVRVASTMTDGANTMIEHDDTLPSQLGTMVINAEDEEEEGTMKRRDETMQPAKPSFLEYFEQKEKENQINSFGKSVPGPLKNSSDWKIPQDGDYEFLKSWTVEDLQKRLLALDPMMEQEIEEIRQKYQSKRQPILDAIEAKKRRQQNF
Conditions: STK4; inhibitor at 500 nM; read-out: percentage of the remaining kinase activity. The essentials:
as §1

Molecules are shown by their SMILES.

Sequence of LIMK1 (P53667 whole entry): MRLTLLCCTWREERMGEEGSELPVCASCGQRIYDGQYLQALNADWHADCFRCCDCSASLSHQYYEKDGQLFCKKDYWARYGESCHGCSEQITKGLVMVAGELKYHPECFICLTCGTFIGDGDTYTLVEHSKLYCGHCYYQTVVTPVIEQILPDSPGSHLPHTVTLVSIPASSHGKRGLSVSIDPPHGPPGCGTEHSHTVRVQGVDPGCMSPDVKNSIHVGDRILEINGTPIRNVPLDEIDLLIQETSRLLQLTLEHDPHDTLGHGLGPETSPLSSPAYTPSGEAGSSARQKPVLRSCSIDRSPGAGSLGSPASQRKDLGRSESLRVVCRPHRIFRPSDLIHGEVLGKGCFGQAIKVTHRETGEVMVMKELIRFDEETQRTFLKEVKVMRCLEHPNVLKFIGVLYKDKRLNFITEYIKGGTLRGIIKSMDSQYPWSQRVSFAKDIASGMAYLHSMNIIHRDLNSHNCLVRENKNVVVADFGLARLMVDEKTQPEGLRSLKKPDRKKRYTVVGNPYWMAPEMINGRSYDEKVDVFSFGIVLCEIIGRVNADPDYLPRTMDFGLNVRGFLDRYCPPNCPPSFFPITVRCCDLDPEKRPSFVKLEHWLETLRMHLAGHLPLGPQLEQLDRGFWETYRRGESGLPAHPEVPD
T6 sequence (O75582 whole entry): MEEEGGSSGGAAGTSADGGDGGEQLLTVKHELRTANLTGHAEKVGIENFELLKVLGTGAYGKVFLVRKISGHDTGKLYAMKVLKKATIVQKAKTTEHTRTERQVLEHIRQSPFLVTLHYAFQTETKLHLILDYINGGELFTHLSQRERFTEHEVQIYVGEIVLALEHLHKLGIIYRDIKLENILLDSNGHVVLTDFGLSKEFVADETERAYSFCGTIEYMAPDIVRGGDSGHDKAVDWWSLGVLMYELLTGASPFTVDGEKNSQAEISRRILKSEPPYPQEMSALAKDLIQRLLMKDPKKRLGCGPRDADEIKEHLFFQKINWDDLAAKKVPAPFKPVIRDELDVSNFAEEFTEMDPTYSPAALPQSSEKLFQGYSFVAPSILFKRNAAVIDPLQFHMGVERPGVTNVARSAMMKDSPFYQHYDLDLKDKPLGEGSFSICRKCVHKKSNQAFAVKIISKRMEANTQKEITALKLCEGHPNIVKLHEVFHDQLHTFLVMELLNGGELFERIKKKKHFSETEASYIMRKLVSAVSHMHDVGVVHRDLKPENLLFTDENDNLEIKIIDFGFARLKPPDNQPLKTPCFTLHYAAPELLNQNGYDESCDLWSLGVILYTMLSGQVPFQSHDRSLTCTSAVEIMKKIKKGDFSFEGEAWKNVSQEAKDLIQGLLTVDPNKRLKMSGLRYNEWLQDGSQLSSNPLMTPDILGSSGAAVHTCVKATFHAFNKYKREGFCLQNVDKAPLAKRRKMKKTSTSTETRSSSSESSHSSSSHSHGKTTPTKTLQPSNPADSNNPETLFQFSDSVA
Sequence of ALK (Q9UM73 19-1620): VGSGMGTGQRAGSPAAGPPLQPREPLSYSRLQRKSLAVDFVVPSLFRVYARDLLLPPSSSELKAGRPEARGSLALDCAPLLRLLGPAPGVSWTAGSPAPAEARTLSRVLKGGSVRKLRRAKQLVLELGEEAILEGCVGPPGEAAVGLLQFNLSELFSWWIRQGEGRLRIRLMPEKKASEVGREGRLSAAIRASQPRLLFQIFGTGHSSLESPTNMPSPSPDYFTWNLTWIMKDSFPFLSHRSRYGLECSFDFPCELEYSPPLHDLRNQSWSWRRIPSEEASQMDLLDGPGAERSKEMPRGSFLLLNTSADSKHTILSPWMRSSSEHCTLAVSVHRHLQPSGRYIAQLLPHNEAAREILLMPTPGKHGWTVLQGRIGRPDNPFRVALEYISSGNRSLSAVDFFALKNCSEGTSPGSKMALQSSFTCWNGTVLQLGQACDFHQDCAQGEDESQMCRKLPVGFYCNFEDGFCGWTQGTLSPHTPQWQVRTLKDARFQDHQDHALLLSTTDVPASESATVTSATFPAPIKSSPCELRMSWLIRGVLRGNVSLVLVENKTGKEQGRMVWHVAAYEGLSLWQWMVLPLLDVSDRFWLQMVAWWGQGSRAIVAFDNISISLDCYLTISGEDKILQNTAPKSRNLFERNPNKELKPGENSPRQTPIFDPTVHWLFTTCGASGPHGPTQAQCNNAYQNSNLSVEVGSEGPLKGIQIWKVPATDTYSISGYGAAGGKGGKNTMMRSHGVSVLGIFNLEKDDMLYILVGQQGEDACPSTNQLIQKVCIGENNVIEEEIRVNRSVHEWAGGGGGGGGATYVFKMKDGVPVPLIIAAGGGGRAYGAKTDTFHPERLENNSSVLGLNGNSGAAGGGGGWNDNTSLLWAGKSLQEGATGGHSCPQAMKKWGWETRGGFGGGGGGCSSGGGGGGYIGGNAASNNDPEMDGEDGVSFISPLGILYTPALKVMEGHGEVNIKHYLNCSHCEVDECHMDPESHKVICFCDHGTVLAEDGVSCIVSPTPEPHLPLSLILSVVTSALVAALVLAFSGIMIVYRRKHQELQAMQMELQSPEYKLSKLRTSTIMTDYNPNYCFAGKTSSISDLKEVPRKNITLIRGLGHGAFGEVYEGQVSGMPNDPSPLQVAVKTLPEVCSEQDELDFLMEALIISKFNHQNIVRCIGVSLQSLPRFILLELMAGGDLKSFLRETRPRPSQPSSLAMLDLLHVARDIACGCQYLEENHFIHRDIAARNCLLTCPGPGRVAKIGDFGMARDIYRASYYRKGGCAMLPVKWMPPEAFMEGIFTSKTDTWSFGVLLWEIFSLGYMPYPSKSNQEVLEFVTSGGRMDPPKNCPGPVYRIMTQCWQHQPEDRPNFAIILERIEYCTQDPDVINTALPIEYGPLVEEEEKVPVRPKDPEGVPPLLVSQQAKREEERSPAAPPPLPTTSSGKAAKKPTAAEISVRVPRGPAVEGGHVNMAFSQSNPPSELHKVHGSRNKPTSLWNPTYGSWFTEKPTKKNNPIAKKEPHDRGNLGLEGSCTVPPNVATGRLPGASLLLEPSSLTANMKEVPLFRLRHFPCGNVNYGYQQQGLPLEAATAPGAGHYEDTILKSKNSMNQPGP
Sequence of CLK1 (P49759 whole entry): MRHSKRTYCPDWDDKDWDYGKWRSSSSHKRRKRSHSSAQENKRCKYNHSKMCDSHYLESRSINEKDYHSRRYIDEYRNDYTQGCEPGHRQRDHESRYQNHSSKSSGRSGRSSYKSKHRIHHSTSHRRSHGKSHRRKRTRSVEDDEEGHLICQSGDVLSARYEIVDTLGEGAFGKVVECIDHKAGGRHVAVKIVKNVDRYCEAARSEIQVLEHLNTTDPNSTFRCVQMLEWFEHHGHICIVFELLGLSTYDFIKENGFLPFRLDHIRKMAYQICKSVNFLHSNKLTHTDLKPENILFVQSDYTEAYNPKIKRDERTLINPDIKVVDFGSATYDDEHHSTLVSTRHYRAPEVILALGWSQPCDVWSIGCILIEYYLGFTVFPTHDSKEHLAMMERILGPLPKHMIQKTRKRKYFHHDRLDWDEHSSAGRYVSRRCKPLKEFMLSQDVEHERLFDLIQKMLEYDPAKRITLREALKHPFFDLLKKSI
Sequence of RET (P07949 29-1114): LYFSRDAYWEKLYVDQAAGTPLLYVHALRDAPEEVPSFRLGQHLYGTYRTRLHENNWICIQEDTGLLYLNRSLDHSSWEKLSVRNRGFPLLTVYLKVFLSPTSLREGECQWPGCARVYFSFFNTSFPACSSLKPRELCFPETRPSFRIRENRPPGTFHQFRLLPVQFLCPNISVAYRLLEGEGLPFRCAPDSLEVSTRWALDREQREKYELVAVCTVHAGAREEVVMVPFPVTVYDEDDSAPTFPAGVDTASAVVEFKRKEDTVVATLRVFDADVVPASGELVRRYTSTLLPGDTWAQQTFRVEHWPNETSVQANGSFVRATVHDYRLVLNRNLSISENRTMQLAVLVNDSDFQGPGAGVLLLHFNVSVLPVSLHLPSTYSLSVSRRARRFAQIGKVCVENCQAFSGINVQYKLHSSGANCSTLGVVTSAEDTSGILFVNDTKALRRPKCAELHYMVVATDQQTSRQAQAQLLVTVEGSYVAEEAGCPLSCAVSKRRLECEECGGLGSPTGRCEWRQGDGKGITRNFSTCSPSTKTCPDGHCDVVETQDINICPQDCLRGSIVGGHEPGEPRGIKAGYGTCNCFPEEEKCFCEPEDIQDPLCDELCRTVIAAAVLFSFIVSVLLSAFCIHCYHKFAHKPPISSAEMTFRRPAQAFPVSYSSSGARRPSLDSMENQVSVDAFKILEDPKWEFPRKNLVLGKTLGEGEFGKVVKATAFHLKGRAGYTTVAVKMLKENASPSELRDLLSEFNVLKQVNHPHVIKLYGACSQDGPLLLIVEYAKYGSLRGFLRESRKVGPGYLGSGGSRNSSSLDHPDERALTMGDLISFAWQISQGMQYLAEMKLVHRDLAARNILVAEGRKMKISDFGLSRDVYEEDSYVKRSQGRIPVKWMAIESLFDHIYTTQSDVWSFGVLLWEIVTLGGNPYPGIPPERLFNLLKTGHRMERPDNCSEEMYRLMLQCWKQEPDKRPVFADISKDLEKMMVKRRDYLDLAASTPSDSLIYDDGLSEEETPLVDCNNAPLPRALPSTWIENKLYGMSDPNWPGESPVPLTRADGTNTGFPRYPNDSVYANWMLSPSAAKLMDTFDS

Turning to `COC1C(N(C)C(=O)C(N)Cc2ccc(O)cc2)CC2OC1(C)n1c3ccccc3c3c4c(c5c6ccccc6n2c5c31)C(=O)NC4` (centres unmarked) [Compound 5], the remaining activity – broadly, the signal under treatment as a percentage of the control signal – at 0.5 µM on ALK is 29.1%; at AURKA, 4.9%; on CAMK2D, 10.1%; at CLK1, 29.6%; at EGFR it was 93.1%; at LIMK1 it was 46.9%. The remaining activity at 0.5 µM at MAP3K7 was 70.7%; on PDPK1, 2%; at PRKACA, 32.6%; at RET it was 21.3%; on RPS6KA5, 2.4%; on SRPK1, 61.1%. Besides, the remaining activity at 0.5 µM on STK4 was 5.5%.
As to `COC1C(N(C)Cc2ccc(-c3ccccc3)cc2)CC2OC1(C)n1c3ccccc3c3c4c(c5c6ccccc6n2c5c31)C(=O)NC4` (centres unmarked) [Compound 9], the remaining activity at 0.5 µM at ALK is 17.6%; on AURKA it was 11.2%; on CAMK2D, 1.1%; at CLK1, 73.7%; on EGFR it was 96.2%; at LIMK1 it was 56.5%. Besides, the remaining activity at 0.5 µM at MAP3K7 was determined as 69.4%; at PDPK1, 2.7%; at PRKACA, 24.6%; on RET it was 14.8%; on RPS6KA5, 5.2%; on SRPK1 it was 78.5%. Also, at STK4, the remaining activity at 0.5 µM stood at 1.5%.
